Legend:
PE/CA-PJ49 cell line = experiment: Inhibitory activity in PTPRD mutant cell line PE/CA-PJ49; format: cell-based; details: PE/CA-PJ49, 48 h
Experimental: (§1) Human breast cancer cell lines MCF7, MDA-MB-231 and SUM159 were maintained in Dulbecco's modified Eagle medium (DMEM). Human pancreatic cancer cell line BxPC-3 was maintained in RPMI 1640 medium. Human pancreatic cancer cell line Capan-1 was maintained in Iscove's Modified Dulbecco's Medium (IMEM). All media were supplemented with 10% FBS and 1% penicillin/streptomycin, and cells were incubated in a humidified 37° C. incubator with 5% CO2. PE/CA-PJ49 cell line was purchased from external sources and maintained according to manufacturer's protocol.
(§2) Cell viability was evaluated by using the MTT assay in triple replicates in one experiment and repeated for three times. Cancer cells were seeded in 96-well plates at a density of 3,000 cells per well. The cells were incubated at 37° C. for a period of 24 hours. Escalating concentrations of IL-6/gp130 inhibitors were added in triplicate to the plates in the presence of 10% FBS. After incubation for 48 or 72 hours, a stock solution of MTT (0.5 mg/ml) was then added to each well containing the treated cells, followed by incubation at 37° C. for 3 h. After removal of medium, the MTT dye was dissolved with spectrophotometric grade DMSO and the absorbance was read at 570 nm. The IC50 value is determined by interpolation based on the absorbance value halfway between positive and negative controls. In the experiment of LLM4 showing higher efficacy in cancer cells with higher levels of IL-6, instead of using medium with 10% FBS, DMEM with 0% FBS was used in order to eliminate the influence of trace amounts of growth factors and cytokines in FBS.
Protein tyrosine […] receptor type D (PTPRD) is reported to serve as a tumor suppressor in various human cancers [Peyser et. al, PLoS One (2015) 10(8)]. PTPRD mutation is also known to be associated with increased STAT3 expression [Peyser et. al, PLoS One (2015) 10(8)]. Table 8 captures the inhibitory activities of various compounds in the PTPRD mutant cell line, PE/CA-PJ49.

[1] = system: BxPC-3 pancreatic cancer cell line; experiment: MTT cell viability assay, BxPC-3; format: cell-based, human; details: for inhibitory effect compared to parent compound LLM4: BxPC-3, 25 μM, 48 hours; for IC50: Homo sapiens, BxPC-3, Table 7
Experimental: as §1, §2

[2] = system: SUM159 breast cancer cell line; experiment: MTT cell viability assay, SUM159; format: cell-based, human; details: for inhibitory effect compared to parent compound LLM4: SUM159, 25 μM, 48 hours
Experimental: as §1
as §2, with “controls.” for “controls. In the experiment of LLM4 showing higher efficacy in cancer cells with higher levels of IL-6, instead of using medium with 10% FBS, DMEM with 0% FBS was used in order to eliminate the influence of trace amounts of growth factors and cytokines in FBS.”

[3] = system: MCF7 breast cancer cell line; experiment: MTT cell viability assay, MCF7; format: cell-based, human; details: MCF7 (low IL-6), 48 h, 0% FBS medium
Experimental: as §1
as §2, with “Escalating concentrations of IL-6/gp130 inhibitors were added in triplicate to the plates in the presence of 10% FBS.” left out, “In the experiment of LLM4 showing higher efficacy in cancer cells with higher levels of IL-6, instead of using medium with 10% FBS, DMEM with 0% FBS was used in order to eliminate the influence of trace amounts of growth factors and cytokines in FBS.” left out

[4] = system: MDA-MB-231 breast cancer cell line; experiment: MTT cell viability assay, MDA-MB-231; format: cell-based, human; details: MDA-MB-231 (medium IL-6), 48 h, 0% FBS medium
Experimental: as §1
as §2, with “Escalating concentrations of IL-6/gp130 inhibitors were added in triplicate to the plates in the presence of 10% FBS.” left out, “In the experiment of LLM4 showing higher efficacy in cancer cells with higher levels of IL-6, instead of using medium with 10% FBS, DMEM with 0% FBS was used in order to eliminate the influence of trace amounts of growth factors and cytokines in FBS.” left out

[5] = system: SUM159 breast cancer cell line; experiment: MTT cell viability assay, SUM159; format: cell-based, human; details: SUM159 (high IL-6), 48 h, 0% FBS medium
[6] = system: multiple myeloma cell line U266; experiment: Cell viability assay, U266; format: cell-based, human
Experimental: as §2
It was reported in multiple myeloma cell line U266 that IL-6 is also elevated and of great importance for cancer progression [Jernberg W, Pettersson M, Carlsson M, et al. Increase in interleukin 6 (IL-6) and IL-6 receptor expression in a human multiple myeloma cell line, U-266, during long-term in vitro culture and the development of a possible autocrine IL-6 loop 1. Leukemia. 1992, 4, 310-318]. These novel IL-6/gp130 inhibitors were tested in U266 cells at a concentration of 25 μM for an incubation time of 48 and 72 hours. MDL16 and LLM4 were used as control compounds.

[7] = system: IL-6 induced STAT3 phosphorylation; experiment: Western blot, IL-6 induced STAT3 phosphorylation in MCF7; format: cell-based, human; details: MCF7, 1-4 μM, 5 h, IL-6 50 ng/ml
Experimental: Cells were harvested and lysed in cold radioimmunoprecipitation assay (RIPA) lysis buffer containing proteasome inhibitor cocktail and phosphatase inhibitor cocktail. The protein concentrations were determined using the BCA Protein Assay kit. After adding the loading buffer and boiling at 95° C. for 10 minutes, equivalent amounts of proteins were loaded on and separated by SDS-PAGE, and then were transferred to PVDF membranes. Membranes were probed with primary antibodies (1:1000) against phospho-STAT3 (Tyr705), STAT3, phospho-STAT1 (Tyr701), STAT1, phospho-STAT6 (Tyr 641), STAT6, and GAPDH, respectively, and horseradish peroxidase (HRP)-conjugated secondary antibody (1:10000) (Cell Signaling Technology, Beverly, Mass.). Membranes were analyzed using Enhanced Chemiluminescence Plus reagents and either scanned with the Storm Scanner (Amersham Pharmacia Biotech, Inc., Piscataway, N.J.) or imaged with ChemiDoc MP imaging system (Bio-Rad, Hercules, Calif.). For cytokine induction of STAT3 phosphorylation, MCF-7 breast cancer cells were seeded in 10 cm plates (1 million cells per plate) and allowed to adhere overnight followed by serum-starvation. […] After designated hours, LLM-418 treated and untreated cells were stimulated by IL-6, LIF, and OSM (50 ng/mL). The cells were harvested after 30 minutes and analyzed by Western blot.
MCF7 breast cancer cells were seeded in 10 cm plates (1 million cells per plate) and allowed to adhere overnight. The following day, the cells were serum-starved. The cells were then left untreated or treated with LLM4 (5-20 μM). After designated hours, the LLM4 treated and untreated cells were stimulated by IL-6, LIF, OSM, CNTF, CT-1, IL-11, IL-4 or INF-γ (50 ng/ml). The cells were harvested after 30 minutes and analyzed by western blotting.

gp130-D1-D3 = molecular target: T1, gp130-D1-D3 (Homo sapiens, UniProt P40189); experiment: SPR direct binding to immobilized gp130-D1-D3 (CM5 chip); details: for Kd: SPR, gp130-D1-D3, linear regression at low concentrations, 25% Rmax; for ΔGexp: experimental binding energy from SPR KD
T1 construct: residues 1-301, the numbering system is based on PDB 3L5H, which is the mature form of gp130; tandem TFH purification tag (includes FLAG, as purified on anti-FLAG M2 agarose) (C); made in house; host or cells: Hi5 insect cells (baculovirus; virus generated in sf9)
T1 sequence (P40189 23-323): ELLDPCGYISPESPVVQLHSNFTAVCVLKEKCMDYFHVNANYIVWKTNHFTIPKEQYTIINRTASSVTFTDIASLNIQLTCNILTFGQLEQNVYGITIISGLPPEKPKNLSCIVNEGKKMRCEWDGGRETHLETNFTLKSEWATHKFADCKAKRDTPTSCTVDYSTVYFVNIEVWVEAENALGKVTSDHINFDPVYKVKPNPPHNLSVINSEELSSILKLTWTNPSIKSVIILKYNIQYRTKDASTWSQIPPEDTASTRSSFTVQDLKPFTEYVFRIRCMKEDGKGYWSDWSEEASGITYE

[8] = molecular target: Extracellular Domain of gp130 (Homo sapiens, UniProt P40189); details: literature value; read-out: reported binding affinity; cited from earlier work
[9] = SUM159 human breast cancer cell line, MTT

Extracellular Domain of gp130, sequence (P40189 23-619 limits assumed): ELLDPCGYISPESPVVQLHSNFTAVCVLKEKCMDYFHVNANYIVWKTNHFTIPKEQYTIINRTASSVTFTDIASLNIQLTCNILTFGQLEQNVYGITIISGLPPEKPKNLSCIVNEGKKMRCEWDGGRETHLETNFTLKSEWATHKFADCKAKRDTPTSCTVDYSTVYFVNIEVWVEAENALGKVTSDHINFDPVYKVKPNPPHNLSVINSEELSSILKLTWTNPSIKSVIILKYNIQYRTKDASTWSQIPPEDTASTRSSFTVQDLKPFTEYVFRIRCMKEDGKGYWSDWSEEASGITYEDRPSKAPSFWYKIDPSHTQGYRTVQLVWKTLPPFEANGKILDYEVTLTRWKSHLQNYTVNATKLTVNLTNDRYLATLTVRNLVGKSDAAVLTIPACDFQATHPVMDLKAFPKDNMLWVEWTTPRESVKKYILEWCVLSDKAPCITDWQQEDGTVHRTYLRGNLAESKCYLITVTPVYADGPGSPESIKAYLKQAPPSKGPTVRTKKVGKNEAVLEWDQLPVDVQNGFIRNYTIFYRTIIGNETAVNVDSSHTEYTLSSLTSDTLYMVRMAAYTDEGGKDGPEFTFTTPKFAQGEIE

`NS(=O)(=O)c1cccc2c1C(=O)c1cccc(O)c1C2=O` [LLL12] gave an IC50 (PE/CA-PJ49 cell line) of 19 ± 2.83 nM.

For `O=C(Nc1cccc(-c2ccn[nH]2)c1)c1cccc(OCCN2CCCCC2)c1` [LLM46, N-(3-(1H-pyrazol-5-yl)phenyl)-3-(2-(piperidin-1-yl)ethoxy)benzamide], the “inhibitory effect compared to parent compound LLM4” value [1] was “comparable or slightly better at inhibition” and the “inhibitory effect compared to parent compound LLM4” value [2] was “comparable or slightly better at inhibition”.

Compound `CN(C)C(=O)Oc1cccc2c1C(=O)c1cccc(S(N)(=O)=O)c1C2=O` [LLL12B] has an IC50 (PE/CA-PJ49 cell line) of 15.9 ± 3.71 nM.

In the case of `O=C(Nc1cc(F)ccc1-n1cccc1)c1ccc(OCCCCc2ccccc2)cc1` [LLM7, N-(5-fluoro-2-(1H-pyrrol-1-yl)phenyl)-4-(4-phenylbutoxy)benzamide], the IC50 ([2]; Homo sapiens, SUM159, SUM159 human breast cancer cell line, MTT) is reported as 58.7 ± 6.3 µM.

In the case of `O=C(NNc1nc2cc(F)ccc2n2cccc12)c1cnccn1` [SC144, reference compound], the IC50 (PE/CA-PJ49 cell line) is reported as 691 ± 64 nM, the IC50 [3] is reported as 4.7 µM and the IC50 [4] is reported as 1220 nM. The IC50 [5] was 1080 nM.

In the case of `O=C(Nc1cc(F)ccc1-n1cccc1)c1ccc(OCCN2CCCCC2)cc1` [LLM3, N-(5-fluoro-2-(1H-pyrrol-1-yl)phenyl)-4-(2-(piperidin-1-yl)ethoxy)benzamide], the IC50 [2, 9] is reported as 31.4 ± 4.7 µM.

In the case of `O=C(Nc1cccc(-c2ccn[nH]2)c1)c1ccc(OCCCN2CCCCC2)cc1` [LLM41, N-(3-(1H-pyrazol-5-yl)phenyl)-4-(3-(piperidin-1-yl)propoxy)benzamide], the IC50 ([6]; Homo sapiens, U-266, U266, 72 h) is reported as 5.4 µM, the “inhibitory effect compared to parent compound LLM4” value ([6]; U266, 25 μM, 48 and 72 hours) is reported as “greater inhibitory effects” and the “inhibition of IL-6 induced STAT3 phosphorylation” value [7] is reported as “inhibited STAT3 phosphorylation stimulated by IL-6 in MCF7 cells in a dose dependent manner”. For the same compound, the “inhibitory effect compared to parent compound LLM4” value [1] was “comparable or slightly better at inhibition”, the IC50 [1] was 13 µM and the IC50 ([2]; Homo sapiens, SUM159, SUM159, Table 7) was 14 µM. For the same compound, the “inhibitory effect compared to parent compound LLM4” value [2] was “comparable or slightly better at inhibition”, the Kd (gp130-D1-D3) was 21.6 µM and the ΔGexp (gp130-D1-D3) was -6.36 kcal/mol.

With `O=C(Nc1cc(F)ccc1-n1cccc1)c1ccc(OCCc2ccccc2)cc1` [LLM5, N-(5-fluoro-2-(1H-pyrrol-1-yl)phenyl)-4-phenethoxybenzamide] the IC50 [2, 9] was 64.4 ± 6.9 µM.

In the case of `CCCCC1=C(C)C(=O)[C@](C)(CN2c3ccccc3[C@]3(O)CCOC23)C1=O` (stereo partly drawn) [MDL-A, Madindoline A, reference compound], the Kd [8] is given as 288 µM, the Kd (gp130-D1-D3) is given as 330 µM and the ΔGexp (gp130-D1-D3) is given as -4.75 kcal/mol.

`Cc1c(-c2ccc(O)cc2)n(Cc2ccc(OCCN3CCCCCC3)cc2)c2ccc(O)cc12` [Bazedoxifene, reference compound] gave an IC50 [1] of 1.8 µM and an IC50 ([2]; Homo sapiens, SUM159, Table 7) of 4.6 µM.

With `O=C(Nc1ccccc1-c1ccn[nH]1)c1ccc(OCCCN2CCCCC2)cc1` [LLM417, N-(2-(1H-pyrazol-5-yl)phenyl)-4-(3-(piperidin-1-yl)propoxy)benzamide] the “inhibitory effect compared to parent compound LLM4” value [1] was “comparable or slightly better at inhibition” and the “inhibitory effect compared to parent compound LLM4” value [2] was “comparable or slightly better at inhibition”.

Reference: patent US11530181B2, “IL-6 inhibitors and methods of treatment” (University of Florida Research Foundation, Incorporated, priority 2018, dated 2022)
